According to patent US20130109721A1, “FAAH Inhibitors” (Ironwood Pharmaceuticals, Inc., priority 2009, published 2013):

Each compound was assayed against T1, FAAH (Mus musculus, UniProt O08914) (assay: FAAH inhibition, mouse brain membrane homogenate assay). Conditions: average; FAAH extracted from mouse brain homogenate; read-out: Mouse Brain FAAH Extract IC50.
T1 construct: Whole brain tissue from these mice was collected; from tissue; host or cells: CD-1 mouse whole brain membrane homogenate
T1 sequence (O08914 1-579): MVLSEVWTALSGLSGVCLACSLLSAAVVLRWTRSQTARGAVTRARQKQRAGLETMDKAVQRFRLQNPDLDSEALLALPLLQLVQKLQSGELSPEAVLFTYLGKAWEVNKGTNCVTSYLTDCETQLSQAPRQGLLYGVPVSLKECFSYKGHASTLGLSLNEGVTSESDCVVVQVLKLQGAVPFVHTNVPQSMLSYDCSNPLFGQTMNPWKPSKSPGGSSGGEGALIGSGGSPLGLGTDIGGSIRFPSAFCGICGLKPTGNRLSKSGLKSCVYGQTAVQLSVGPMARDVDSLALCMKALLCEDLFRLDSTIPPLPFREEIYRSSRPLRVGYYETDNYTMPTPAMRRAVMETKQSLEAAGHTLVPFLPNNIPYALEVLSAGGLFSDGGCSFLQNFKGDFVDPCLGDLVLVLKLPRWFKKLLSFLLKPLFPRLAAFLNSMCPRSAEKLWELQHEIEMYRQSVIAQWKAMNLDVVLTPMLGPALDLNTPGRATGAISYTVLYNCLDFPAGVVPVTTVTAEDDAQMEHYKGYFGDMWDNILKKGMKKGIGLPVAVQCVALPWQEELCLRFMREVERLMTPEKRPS
Type: biochemical
Protocol: Adult rats (Charles River CD strain, female, 200 g) were anaesthetized with isofluorane and rapidly decapitated. Each brain was quickly removed and chilled in tubes (3 brains per tube) on ice. About 25 mL of “homogenization buffer” (20 mM HEPES buffer, pH 7.0, with 1 mM MgCl2) was added to 15 to 20 g of brain. The brains were homogenized on ice for 1 minute using an Omni GLH homogenizer (Omni International, Marietta, Ga.). The homogenates were then transferred to three centrifuge tubes and centrifuged at 36,500 g for 20 minutes at 4° C. The supernatant was discarded and each pellet was re-suspended in 25 mL homogenization buffer. The re-suspended material was again centrifuged (36,500 g, 20 minutes at 4° C.). Pellets were combined by resuspension in 10 mL of homogenization buffer and incubated in a 37° C. water bath for 15 minutes. The tubes were then placed on ice for 5 minutes followed by centrifugation at 36,500 g for 20 minutes at 4° C. The supernatant was discarded and the membrane pellets were then re-suspended in 40 mL of “resuspension buffer” (50 mM Tris-HCl buffer, pH 7.4, containing 1 mM EDTA and 3 mM MgCl2). A Bradford Protein assay was performed to determine protein concentration. The protein was aliquotted into screw cap Cryo tubes each containing ˜400 μL, flash frozen in liquid nitrogen and stored at −80° C. until used for the assay. A similar protocol was used to obtain brain membrane homogenates from mice.
Eighteen 10 to 12 week old female CD-1 mice housed at the animal care facility of Ironwood Pharmaceuticals were anesthetized by isoflurane anesthesia and rapidly decapitated using a small decapitator (Harvard Apparatus part #PY8 SS-0012, Holliston, Mass.). Whole brain tissue from these mice was collected (approximately 9.4 g total) and placed on aluminum foil sitting on dry ice to flash freeze the tissue. Tissue was thawed and used to prepare microsomes as described above for rat brain homogenates.
FAAH activity was assayed in the respective homogenates described herein (Rat brain, Mouse brain or Human brain) for certain exemplary substrate compounds using a modification of the method of Omeir et al. (1995 Life Sci 56:1999) and Fowler et al. (1997 J. Pharmacol Exp Ther 283:729). For assay of FAAH activity in rat brain membrane (RBM) homogenates, RBM homogenates (7 μg protein in 20 μL final volume of 10 mM Tris pH 6.5) were mixed with 180 μL of a mixture of the following: 2.0 μM unlabelled anandamide, 0.03 μCi radio labeled anandamide [ethanolamine 1-^3H] (40-60 Cis/mmol, product number ART-626, American Radiolabeled Chemicals, St. Louis, Mo.), 1 mg/mL Bovine Serum Albumin (fatty acid-free BSA, electrophoresis grade, Sigma, St. Louis, Mo.), 10 mM Tris-HCl (pH 6.5), and 1 mM EDTA in the presence and absence of test compounds (vehicle was DMSO at a final concentration of 1%) and incubated for 10 minutes at 37° C. Samples were placed on ice to terminate the reactions.
^3H-ethanolamine product and un-reacted ^3H-anandamide substrate were then separated either: (1) by using chloroform/methanol extraction or (2) by passing the reaction mixture through a glass fiber filter containing activated charcoal. Samples were extracted with chloroform/methanol by adding 0.4 mL of chloroform/methanol (1:1 v/v), vigorously mixing the samples, and separating the aqueous and organic phases by centrifugation. Radioactivity (corresponding to FAAH-catalyzed breakdown of ^3H-anandamide) found in aliquots (0.2 mL) of the aqueous phase was determined by liquid scintillation counting with quench correction. IC50 values were determined as described by Jonsson et al. (2001 Br. J. Pharmacol. 133:1263). Alternatively, reactions were purified using a modification of the solid-phase extraction method described by Wilson et al (2003 Anal. Biochem. 318:270). […]

SMILES | IC50 [nM]
Cc1c(C(=O)C(=O)Nc2cccc(Cl)c2)c2ccsc2n1Cc1ccc(Cl)cc1 [Compound I-08, 2-(6-(4-chlorobenzyl)-5-methyl-6H-thieno[2,3-b]pyrrol-4-yl)-N-(3-chlorophenyl)-2-oxoacetamide] | > 5000
Cc1c(C(=O)C(=O)Nc2cccc(Cl)c2)c2c(n1Cc1ccc(Cl)cc1)CCCCCC2 [Compound I-10, 2-(1-(4-chlorobenzyl)-2-methyl-4,5,6,7,8,9-hexahydro-1H-cycloocta[b]pyrrol-3-yl)-N-(3-chlorophenyl)-2-oxoacetamide] | > 5000
Cc1c(C(=O)C(=O)Nc2cccc(Cl)c2)c2c(n1Cc1ccc(Cl)cc1)CCCCC2 [Compound I-12, 2-(1-(4-chlorobenzyl)-2-methyl-1,4,5,6,7,8-hexahydrocyclohepta[b]pyrrol-3-yl)-N-(3-chlorophenyl)-2-oxoacetamide] | 1090
Cc1c(C(=O)C(=O)Nc2cccc(Cl)c2)c2c(n1Cc1ccc(Cl)cc1)CCC(C)(C)C2 [Compound I-14, 2-(1-(4-chlorobenzyl)-2,5,5-trimethyl-4,5,6,7-tetrahydro-1H-indol-3-yl)-N-(3-chlorophenyl)-2-oxoacetamide] | 516
Cc1c(C(=O)C(=O)Nc2cccc(Cl)c2)c2c(n1Cc1ccc(Cl)cc1)CCCC2 [Compound I-16, 2-(1-(4-chlorobenzyl)-2-methyl-4,5,6,7-tetrahydro-1H-indol-3-yl)-N-(3-chlorophenyl)-2-oxoacetamide] | 2080

The next compounds have a lower IC50 than those just listed; values first:

IC50 [nM] | SMILES
62 | COc1cc(NC(=O)C(=O)c2c(C)n(Cc3ccc(Cl)cc3)c3sccc23)ccn1 [Compound I-09, 2-(6-(4-chlorobenzyl)-5-methyl-6H-thieno[2,3-b]pyrrol-4-yl)-N-(2-methoxypyridin-4-yl)-2-oxoacetamide]
192 | COc1cc(NC(=O)C(=O)c2c3c(n(Cc4ccc(Cl)cc4)c2C)CCCCCC3)ccn1 [Compound I-11, 2-(1-(4-chlorobenzyl)-2-methyl-4,5,6,7,8,9-hexahydro-1H-cycloocta[b]pyrrol-3-yl)-N-(2-methoxypyridin-4-yl)-2-oxoacetamide]
3 | COc1cc(NC(=O)C(=O)c2c3c(n(Cc4ccc(Cl)cc4)c2C)CCCCC3)ccn1 [Compound I-13, 2-(1-(4-chlorobenzyl)-2-methyl-1,4,5,6,7,8-hexahydrocyclohepta[b]pyrrol-3-yl)-N-(2-methoxypyridin-4-yl)-2-oxoacetamide]
7 | COc1cc(NC(=O)C(=O)c2c3c(n(Cc4ccc(Cl)cc4)c2C)CCC(C)(C)C3)ccn1 [Compound I-15, 2-(1-(4-chlorobenzyl)-2,5,5-trimethyl-4,5,6,7-tetrahydro-1H-indol-3-yl)-N-(2-methoxypyridin-4-yl)-2-oxoacetamide]
9 | COc1cc(NC(=O)C(=O)c2c3c(n(Cc4ccc(Cl)cc4)c2C)CCCC3)ccn1 [Compound I-18, 2-(1-(4-chlorobenzyl)-2-methyl-4,5,6,7-tetrahydro-1H-indol-3-yl)-N-(2-methoxypyridin-4-yl)-2-oxoacetamide]
